Earlier results in patent US10172902B2, “Ocular eyelid scrub composition for the treatment of demodex blepharitis” (LUNOVUS, LLC, priority 2014, dated 2019).

Tested on: ocular Demodex
Conditions: solutions, suspensions, sprays, lotions, gels, pastes, cleansers, creams or ointments

In the case of `CC1=CCC(O)(C(C)C)CC1` (stereo not shown) [terpinen-4-ol], the “treating an ocular Demodex infestation or Demodex-induced blepharitis” value is given as “effective”.
